According to ChEMBL document CHEMBL5724696, “Autophagy assay results for EUbOPEN Chemogenomics Library” (2024):

What was measured:
Type in all cases: functional, Homo sapiens
U2OS [1] = assay: (§1) Here: values are normalized to the negative (DMSO; defined as 0% autophagy induction) and positive (250nM Torin1; mTOR inhibitor; defined as maximal inducer of autophagy = 100%) control compounds and represented as % of autophagy induction. […] The impact of autophagy induction on cells is complex and depends on the affected target. As such, the magnitude of a phenotype may not be equally mirrored in the %-value of autophagy induction and vice versa. The dynamics of the induction may indicate the mode of activation: e.g. activation via phosphorylation or a signaling cascade may occur fast, while activation via transcription factors may take considerably longer. […] Of note, treatment concentrations may be sub-optimal for specific compounds, leading to false negative annotations.; settings: Culturing Media DMEM, 1 % Penicillin/Streptomycin, 10% Fetal bovin serum Add-On: No, Screening Media Control DMEM, Screening Media Samples DMEM
TERT-RPE1 = assay: as §1; settings: Culturing Media DMEM/F12 (1:1), 1 % Penicillin/Streptomycin, 10% Fetal bovin serum Add-On: No, Screening Media Control DMEM/F12 (1:1), Screening Media Samples DMEM/F12 (1:1)
U2OS [2] = assay: as §1; settings: Culturing Media DMEM, 1 % Penicillin/Streptomycin, 10% Fetal bovin serum Add-On: No, Screening Media Control DMEM, Screening Media Samples DMEM; remark: listed apart in the source
[3] = Compound Concentration 0.5 uM, Timepoint 12 hours
[4] = Compound Concentration 0.5 uM, Timepoint 24 hours
[5] = Compound Concentration 0.5 uM, Timepoint 36 hours
[6] = Compound Concentration 0.5 uM, Timepoint 60 hours
[7] = Compound Concentration 2 uM, Timepoint 12 hours
[8] = Compound Concentration 2 uM, Timepoint 24 hours
[9] = Compound Concentration 2 uM, Timepoint 36 hours
[10] = Compound Concentration 2 uM, Timepoint 60 hours
[11] = Compound Concentration 10 uM, Timepoint 12 hours
[12] = Compound Concentration 10 uM, Timepoint 24 hours
[13] = Compound Concentration 10 uM, Timepoint 36 hours
[14] = Compound Concentration 10 uM, Timepoint 60 hours

| Structure (SMILES) | autophagy induction (U2OS [1]; [3]) [%] | autophagy induction (U2OS [1]; [4]) [%] | autophagy induction (U2OS [1]; [5]) [%] | autophagy induction (U2OS [1]; [6]) [%] | autophagy induction (U2OS [1]; [7]) [%] | autophagy induction (U2OS [1]; [8]) [%] | autophagy induction (U2OS [1]; [9]) [%] | autophagy induction (U2OS [1]; [10]) [%] | autophagy induction (U2OS [1]; [11]) [%] | autophagy induction (U2OS [1]; [12]) [%] | autophagy induction (U2OS [1]; [13]) [%] | autophagy induction (U2OS [1]; [14]) [%] | autophagy induction (TERT-RPE1; [3]) [%] | autophagy induction (TERT-RPE1; [4]) [%] | autophagy induction (TERT-RPE1; [5]) [%] | autophagy induction (TERT-RPE1; [6]) [%] | autophagy induction (TERT-RPE1; [7]) [%] | autophagy induction (TERT-RPE1; [8]) [%] | autophagy induction (TERT-RPE1; [9]) [%] | autophagy induction (TERT-RPE1; [10]) [%] | further results |
| --- | --- | --- | --- | --- | --- | --- | --- | --- | --- | --- | --- | --- | --- | --- | --- | --- | --- | --- | --- | --- | --- |
| C/C(=N\NC(=O)[C@@H]1C(=O)NC[C@H]1c1ccccc1)c1cccc(Br)c1 | -3.442 | 0.5164 | 1.385 | -0.9425 | -6.368 | -5.034 | -3.37 | -2.754 | -1.379 | -1.755 | -0.957 | -1.418 | 3.657 | -1.179 | -5.656 | -7.294 | -6.467 | -9.581 | -11.1295 | -14.064 | autophagy induction (TERT-RPE1; [11]): -5.576%; autophagy induction (TERT-RPE1; [12]): -6.043%; autophagy induction (TERT-RPE1; [13]): -7.363%; autophagy induction (TERT-RPE1; [14]): -9.435%; autophagy induction (U2OS [2]; [3]): 9.666%; autophagy induction (U2OS [2]; [4]): 0.07709%; autophagy induction (U2OS [2]; [5]): 4.021%; autophagy induction (U2OS [2]; [6]): -3.426%; autophagy induction (U2OS [2]; [7]): -4.579%; autophagy induction (U2OS [2]; [8]): -6.454%; autophagy induction (U2OS [2]; [9]): -2.749%; autophagy induction (U2OS [2]; [10]): -11.0743%; autophagy induction (U2OS [2]; [11]): -8.587%; autophagy induction (U2OS [2]; [12]): 1.184%; autophagy induction (U2OS [2]; [13]): -3.458%; autophagy induction (U2OS [2]; [14]): -5.559% |
| N#Cc1c(N)nc(SCC(N)=O)c(C#N)c1-c1ccc(OCC2CC2)cc1 | 1.815 | -1.199 | -2.125 | -2.448 | 4.971 | 0.9116 | -0.4866 | -0.2456 | 12.9304 | 7.609 | 1.394 | 0.5911 | -0.3512 | -0.4647 | -3.4426 | -13.7976 | 6.426 | 7.278 | 5.568 | -4.471 | autophagy induction (TERT-RPE1; [11]): 18.2835%; autophagy induction (TERT-RPE1; [12]): 21.4433%; autophagy induction (TERT-RPE1; [13]): 22.9122%; autophagy induction (TERT-RPE1; [14]): 26.9726%; autophagy induction (U2OS [2]; [3]): 13.384%; autophagy induction (U2OS [2]; [4]): 10.3272%; autophagy induction (U2OS [2]; [5]): 7.6764%; autophagy induction (U2OS [2]; [6]): 5.5559%; autophagy induction (U2OS [2]; [7]): 6.979%; autophagy induction (U2OS [2]; [8]): 4.233%; autophagy induction (U2OS [2]; [9]): 4.058%; autophagy induction (U2OS [2]; [10]): 1.654%; autophagy induction (U2OS [2]; [11]): 28.6221%; autophagy induction (U2OS [2]; [12]): 28.519%; autophagy induction (U2OS [2]; [13]): 26.7564%; autophagy induction (U2OS [2]; [14]): 32.3548% |
| COc1ccc(S(=O)(=O)c2cc(OC)ccc2S(=O)(=O)c2ccc([C@H](C)NS(C)(=O)=O)cc2)cc1 | 5.1145 | 1.212 | 0.9926 | 0.6082 | 2.687 | 1.009 | 1.125 | 0.5012 | -3.021 | -0.6189 | -0.5987 | -0.1479 | -6.482 | -9.039 | -9.847 | -11.3186 | -6.676 | -10.1921 | -12.367 | -10.4808 | autophagy induction (TERT-RPE1; [11]): -5.338%; autophagy induction (TERT-RPE1; [12]): -8.134%; autophagy induction (TERT-RPE1; [13]): -7.872%; autophagy induction (TERT-RPE1; [14]): -5.175%; autophagy induction (U2OS [2]; [3]): 5.054%; autophagy induction (U2OS [2]; [4]): -4.288%; autophagy induction (U2OS [2]; [5]): -4.858%; autophagy induction (U2OS [2]; [6]): -2.8349%; autophagy induction (U2OS [2]; [7]): 5.036%; autophagy induction (U2OS [2]; [8]): -1.126%; autophagy induction (U2OS [2]; [9]): 2.146%; autophagy induction (U2OS [2]; [10]): -5.198%; autophagy induction (U2OS [2]; [11]): 5.742%; autophagy induction (U2OS [2]; [12]): 6.2878%; autophagy induction (U2OS [2]; [13]): 4.231%; autophagy induction (U2OS [2]; [14]): -3.951% |
